For orientation: pKa means the pH at which an ionisable group is half protonated. Consider `CN(C)[C@H]1CC[C@@H](C)CC1`, for which the pKa (basic group) is 10.5. `CCN(CC)CCNc1nc(N)nc(C)c1C` showed a pKa (basic group) of 9.7. Regarding `CCC[C@H]1NC(C(=O)[O-])CS1` (stereo partly drawn), under “basic group”, the pKa is 6.25. With `NC(=O)CCCc1ccccn1`, where the note is “acidic group”, the pKa was 5.48. As for `N#Cc1ccc2c(c1)CCN2`, where the note is “basic group”, the pKa amounted to 2.8. `O=[N+]([O-])c1cc(Br)c(O)c(Br)c1` came in with a pKa (acidic group) of 3.7. In the case of `Nc1ncnc2[nH]ncc12`, the pKa runs as follows: (acidic group) 10.8; (basic group) 4.59. `COC(=O)CS`: the pKa (acidic group) was 7.57.

Take `COc1ncc2[nH]cnc2n1`: the pKa (acidic group) worked out at 9.2 and the pKa (basic group) came out at 2.44.

`CCC(C(=O)O)C(=O)N1CCCCC1` (stereo not drawn): under “acidic group”, the pKa was found to be 3.86.

As for `C[C@@H]1CC[C@@H]2CC[C@H](C)N21`, where the note is “basic group”, the pKa was found to be 10.2. `O=c1cc(-c2ccccc2)oc2ccc(O)cc12` gave a pKa (acidic group) of 9.09. For the compound `O=C(O)[C@@H](P)CC[C@H](P)C(=O)O`, under “acidic group”, the pKa was 3.62. `C=C(C)/C=C(/C(=O)O)c1ccc([N+](=O)[O-])cc1` yielded a pKa (acidic group) of 4.4. In turn, `Cc1ccccc1NC(=O)CN1CCCCC1` came in with a pKa (basic group) of 7.7. For the compound `NC(=O)Cc1ccccn1`, the pKa (basic group) came out at 4.34. `O=CNOC(=O)/C=C/c1ccccc1` registered a pKa (acidic group) of 5.9. With `Nc1cccc2[nH]ncc12`, the pKa (basic group) was 3.29. For the compound `Nc1ccccc1O`, the pKa is, setting by setting: (acidic group) 9.71; (basic group) 4.55.

With `COc1cc(S(C)=O)ccc1-c1nc2ncncc2[nH]1` (stereo not drawn), the pKa is, setting by setting: (acidic group) 8.91; (basic group) 2.69. `CCN(CC)c1ccc([N+](=O)[O-])cc1` showed a pKa (basic group) of 1.7. Compound `CNC` gave a pKa (basic group) of 11. As for `Cc1cc(C(C)C)cc(C)c1O`, under “acidic group”, the pKa was determined as 10.9. `C[NH+](C)CCc1ccccc1O` yielded a pKa (acidic group) of 8.75. With `COc1cnccn1`, the pKa (basic group) was 0.75. With `On1nnc2ccccc21`, the pKa (acidic group) is 4.6. `CC1=CCCCN1C` displayed a pKa (basic group) of 11.4. In the case of `O=C(NO)c1cccc2ccccc12`, the pKa (acidic group) was 7.7. Turning to `CC(=O)/N=c1\sc(S(N)(=O)=O)nn1C`, under “acidic group”, the pKa stood at 7.3. For `O=P1(O)CCC1`, the pKa (acidic group) was determined as 3.07.

As for `Cn1cncc1C[C@H]([NH3+])C(=O)[O-]`, where the note is “basic group”, the pKa was found to be 6.53. In the case of `CCCCCCCCCCCCCCCCN(CCCCCCCCCCCCCCCC)C(=O)[C@H](C)NC(=O)[C@H](Cc1c[nH]cn1)NC(=O)CCCCC[N+](C)(C)C.[Br-]`, where the note is “basic group”, the pKa is 7.2.

As to `Cc1cc(-c2ccccc2)nn2c(C[NH+]3CCOCC3)cnc12`, the pKa (basic group) worked out at 2.9. Take `O=C(O)c1c(Br)cccc1[N+](=O)[O-]`: for the setting “acidic group”, the pKa worked out at 1.37.

For the setting “basic group”, `Nc1cccc(N)c1` registered a pKa of 5.04.

`Cc1[nH]c(C)c(C)c1C` showed a pKa (basic group) of 3.77. In turn, `OCCCNc1ccccc1` displayed a pKa (basic group) of 4.53. Same read-out and setting: under `COc1ccc(C(O)CNC(C)CC2=C(C)C(C)(C)CC2)cc1` (stereo not drawn) stands 8.79; under `CN(C)c1cccc2cccc([NH+](C)C)c12`, -9. As to `Cc1cccc(C(=O)O)c1Br`, the pKa (acidic group) was 2.9. For the compound `CCc1cncc(C)c1`, the pKa (basic group) amounted to 5.2. The same measure, in the same setting: under `C=C[C@]1(O)C[C@@H](C)N[C@@H]2CCCC[C@H]21` stands 9.98. `CCCCCCc1c(-c2ccccc2)n[nH]c1O` displayed a pKa (acidic group) of 8.6. `Cc1ccccc1/C=C/c1ccc(N(C)C)cc1`: where the note is “basic group”, the pKa was 4.59. As to `Cc1c[nH]cn1`, the pKa (basic group) came out at 7.51. The compound `O=C(Cc1ccccn1)c1ccccc1` displayed a pKa (acidic group) of 13.3 and a pKa (basic group) of 4.53. The compound `NC1=[NH+][C@@H](CC(=O)[O-])C(=O)N1CCCC(N)C(=O)[O-]` (stereo partly drawn) came in with a pKa (basic group) of 8.1. For the compound `c1ccc(-c2cc3cccnc3c3ncccc23)cc1`, the pKa (basic group) came to 4.72.

Consider `O=C(O)C(c1ccc(-c2ccccc2)cc1)C1(O)CCCCC1` (stereo not drawn), for which the pKa (acidic group) was determined as 3.59. Regarding `CCCCCCCCCCc1c(-c2ccccc2)nn(-c2ccccc2)c1O`, the pKa (acidic group) was found to be 6.7. With `CCOC(=O)C1CCCC1=O` (stereo not drawn), where the note is “acidic group”, the pKa was found to be 10.7. Regarding `CCC(O)CN(CC)CC(C)O` (stereo not drawn), the pKa (basic group) worked out at 9.2.

Take `O=C(O)c1cccc(S)c1`: for the setting “acidic group”, the pKa stood at 3.96.

`CN1CCNCC1` returned a pKa (basic group) of 9.6.

For the setting “basic group”, `Cc1cnc2c(c1)c(C)cc1c(C)c(C)cnc12` had a pKa of 6.07. Still for that read-out and setting: with `CN(C)CCCN` the figure was 10.

Consider `NCCCc1ccccc1`, for which, where the note is “basic group”, the pKa amounted to 10.3. `[NH3+][C@@H](Cc1ccccc1)C(=O)O` returned a pKa (acidic group) of 2.21.

Under “basic group”, `O=C([O-])c1cc(-c2ccccc2)nnc1NCCN1CCOCC1` returned a pKa of 7.07.

`CCCCC(CC)CNc1ncnc2[nH]ncc12` (stereo not drawn) had a pKa (basic group) of 4.6. The same measure, in the same setting: with `COc1ccc2c(c1)NCCN2` the figure was 5.26; with `Nc1ccc2c(c1O)Cc1ccccc1-2`, 4.82.

Consider `CCN(c1ccccc1)C(C)(C)C`, for which the pKa (basic group) came to 8.02.

`CC(C)NCC(O)COc1ccccc1` (stereo not drawn): under “basic group”, the pKa was 9.45. For the compound `O=Cc1ccncc1O`, the pKa reads like this: (acidic group) 6.77; (basic group) 4.05. As to `O=S(=O)([O-])c1c(O)ccc2[nH]ncc12`, the pKa (acidic group) worked out at 10.6. Consider `O=[N+]([O-])c1ccc2cn[nH]c2c1`, for which the pKa (basic group) worked out at 0.66.

The values above are taken from the pKa sets of Baltruschat and Czodrowski (2020).
